In the NIST ThermoML archive (doi:10.1021/je200178b):

Experiment: mean ionic activity coefficient (dimensionless); mn = molality of the nth substance listed, in mol/kg
Details: 298.15 K, 101 kPa, Liquid, ion-selective electrode

[F-].[Rb+] [rubidium fluoride (RbF)] + O
Details	mean ionic activity coefficient
m1 = 0.0046	0.9305
m1 = 0.0096	0.9047
m1 = 0.014	0.8889
m1 = 0.0187	0.8759
m1 = 0.0232	0.8654
m1 = 0.0275	0.8567
m1 = 0.0321	0.8486
m1 = 0.0367	0.8414
m1 = 0.0411	0.8351
m1 = 0.0506	0.8235
m1 = 0.0596	0.8141
m1 = 0.0685	0.806
m1 = 0.0772	0.799
m1 = 0.0915	0.7891
m1 = 0.1058	0.7806
m1 = 0.1293	0.769
m1 = 0.1517	0.7599
m1 = 0.1747	0.7521
m1 = 0.2107	0.7421
m1 = 0.2467	0.7342
m1 = 0.2819	0.7278
m1 = 0.3349	0.7202
m1 = 0.3859	0.7146
m1 = 0.4584	0.7086
m1 = 0.5332	0.7043
m1 = 0.6214	0.701

[Cs+].[F-] [cesium fluoride (CsF)] + O
Details	mean ionic activity coefficient
m1 = 0.0043	0.9338
m1 = 0.0085	0.9112
m1 = 0.0128	0.8953
m1 = 0.0172	0.8824
m1 = 0.0215	0.872
m1 = 0.0258	0.863
m1 = 0.0302	0.8551
m1 = 0.0346	0.848
m1 = 0.0391	0.8416
m1 = 0.0437	0.8355
m1 = 0.0523	0.8257
m1 = 0.0608	0.8173
m1 = 0.0698	0.8096
m1 = 0.0787	0.8028
m1 = 0.0875	0.7968
m1 = 0.1003	0.7892
m1 = 0.1138	0.7822
m1 = 0.1268	0.7762
m1 = 0.1455	0.7689
m1 = 0.1632	0.7629
m1 = 0.1817	0.7575
m1 = 0.2045	0.7517
m1 = 0.226	0.7471
m1 = 0.2524	0.7423
m1 = 0.2823	0.7377
m1 = 0.3166	0.7335
m1 = 0.3589	0.7294
m1 = 0.4086	0.7259
m1 = 0.4762	0.7227
